Test results published in article PMC11878344 (Angewandte Chemie (International Ed. in English), 2025).

Assays:
[1] = target: T1, MAGL splicing variants in mouse brain proteome (Mus musculus, UniProt O35678); assay: In-gel SDS-PAGE fluorescence labeling of mouse brain proteome with irreversible probes; assay type: biochemical
T1 sequence (O35678 1-303): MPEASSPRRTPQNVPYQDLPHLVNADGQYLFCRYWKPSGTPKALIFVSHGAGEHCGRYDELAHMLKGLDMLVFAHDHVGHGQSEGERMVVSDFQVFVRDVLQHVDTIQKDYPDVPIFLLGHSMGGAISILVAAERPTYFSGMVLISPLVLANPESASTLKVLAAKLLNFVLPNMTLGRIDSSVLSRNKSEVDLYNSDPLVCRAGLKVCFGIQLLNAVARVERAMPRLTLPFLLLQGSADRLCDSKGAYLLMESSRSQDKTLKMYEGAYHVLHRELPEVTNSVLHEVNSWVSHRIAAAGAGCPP
Procedure: (§1) Activity‐based protein profiling (ABPP)[49] was used to determine the selectivity of the reversible probes (9, 10) versus a broad range of other serine hydrolases, including the relevant ECS off‐targets DAGL, FAAH, ABHD6, and ABHD12.[45, 49, 50, 51] The ABPP assay was studied in the mouse brain proteome (MBP) at 1 μM concentration as mouse brain homogenate is the most relevant model system for studying ECS enzymes.[45, 49, 50, 51] […] The irreversible probes 11 and 12 could be used to visualize MAGL by in‐gel SDS‐PAGE fluorescence of MBP samples and, thereby, directly showing the specificity of 11 and 12 towards the two MAGL splicing variants present in MBP over a broad range of concentrations. Starting at 1 nM probe concentration, MAGL was detected and only at elevated concentrations greater than 1 μM, minor off‐target protein labeling at approx. 80 kDa started to appear (Figure 3 B). In addition to testing in mouse brain lysates, we also determined the binding of MAGL probes 9–12 towards a panel of 50 off‐targets via a competitive radioligand binding screen to detect interference with potential safety‐related off‐targets (Figure 3 C).
(§2) Mouse brain sample preparation. […] Protein concentration was determined with Bradford Assay, and samples were diluted to a final concentration of 2.0 mg/mL. […]

[2] = system: serine hydrolases of the mouse brain proteome (MAGL, DAGL, FAAH, ABHD6, ABHD12); assay: Competitive multiplex ABPP in mouse brain proteome; assay type: biochemical; conditions: 1 μM probe
Procedure: as §1, §2

Row | SMILES | Probe concentration at which minor off-target protein labeling (approx. 80 kDa) appears [1] | Probe concentration from which MAGL was detected [1] | Blocking of serine hydrolase fluorescence signal (selectivity) [2]
1 | CN(C)c1ccc2c(c1)[Si](C)(C)c1cc(N(C)C)ccc1C21OC(=O)c2ccc(C(=O)NCCCCCOc3ccccc3CC3CC4(C3)CN(C(=O)OC(C(F)(F)F)C(F)(F)F)C4)cc21 (stereo not drawn) [Compound 12] | greater than 1 μM | ≥ 1 nM | –
2 | CN(C)c1ccc2c(c1)[Si](C)(C)c1cc(N(C)C)ccc1C21OC(=O)c2ccc(C(=O)NCCCCCOc3ccccc3CC3CC4(C3)CN(C(=O)N3CC5(COC(=O)N5)C3)C4)cc21 (stereo not drawn) [Compound 10] | – | – | Complete blocking of the fluorescence signal was exclusively observed for MAGL
